The NIST ThermoML archive (doi:10.1021/acs.jced.8b00132)
Values joined by “and” are separate entries in the source; they are usually repeats but may differ in a detail not shown here. Equal entries are not always repeated. ± gives the expanded uncertainty stated by the source.

O=C(C(F)(F)C(F)(F)F)C(F)(C(F)(F)F)C(F)(F)F [dodecafluoro-2-methylpentan-3-one]
Conditions	thermal conductivity
330 K, 67724 kPa, Liquid, transient hot wire	0.07584 ± 0.0016 W/m/K
330.01 K, 117 kPa, Gas, hot wire	0.01411 ± 0.00069 W/m/K
330.01 K, 14125 kPa, Liquid, transient hot wire	0.05895 ± 0.0012 W/m/K
330.01 K, 14129 kPa, Liquid, transient hot wire	0.05898 ± 0.0012 W/m/K
330.02 K, 117 kPa, Gas, hot wire	0.01412 ± 0.00069 W/m/K
330.02 K, 36718 kPa, Liquid, transient hot wire	0.0672 ± 0.0014 W/m/K
330.02 K, 36720 kPa, Liquid, transient hot wire	0.06721 ± 0.0014 W/m/K
330.06 K, 57396 kPa, Liquid, transient hot wire	0.07315 ± 0.0015 W/m/K
330.06 K, 57404 kPa, Liquid, transient hot wire	0.07318 ± 0.0015 W/m/K
330.09 K, 27942 kPa, Liquid, transient hot wire	0.06426 ± 0.0013 W/m/K
330.09 K, 27945 kPa, Liquid, transient hot wire	0.06429 ± 0.0013 W/m/K
330.1 K, 8617 kPa, Liquid, transient hot wire	0.05649 ± 0.0012 W/m/K
330.1 K, 8619 kPa, Liquid, transient hot wire	0.0565 ± 0.0012 W/m/K
330.14 K, 4470 kPa, Liquid, transient hot wire	0.05444 ± 0.0011 W/m/K
330.14 K, 46576 kPa, Liquid, transient hot wire	0.07022 ± 0.0014 W/m/K
330.14 K, 46583 kPa, Liquid, transient hot wire	0.07015 ± 0.0014 W/m/K
330.15 K, 4473 kPa, Liquid, transient hot wire	0.05441 ± 0.0011 W/m/K
330.16 K, 20517 kPa, Liquid, transient hot wire	0.06186 ± 0.0013 W/m/K
330.16 K, 20518 kPa, Liquid, transient hot wire	0.06149 ± 0.0013 W/m/K
330.19 K, 67678 kPa, Liquid, transient hot wire	0.07583 ± 0.0016 W/m/K
330.2 K, 67695 kPa, Liquid, transient hot wire	0.07583 ± 0.0016 W/m/K
330.21 K, 178 kPa, Liquid, transient hot wire	0.05173 ± 0.0011 W/m/K
330.22 K, 178 kPa, Liquid, transient hot wire	0.05205 ± 0.0011 W/m/K
330.23 K, 180 kPa, Liquid, transient hot wire	0.05206 ± 0.0011 W/m/K
330.23 K, 36712 kPa, Liquid, transient hot wire	0.06716 ± 0.0014 W/m/K
330.23 K, 36715 kPa, Liquid, transient hot wire	0.06712 ± 0.0014 W/m/K
330.24 K, 180 kPa, Liquid, transient hot wire	0.05202 ± 0.0011 W/m/K
330.24 K, 14124 kPa, Liquid, transient hot wire	0.05892 ± 0.0012 W/m/K
330.24 K, 14130 kPa, Liquid, transient hot wire	0.05892 ± 0.0012 W/m/K
330.26 K, 57370 kPa, Liquid, transient hot wire	0.07313 ± 0.0015 W/m/K
330.26 K, 57385 kPa, Liquid, transient hot wire	0.07314 ± 0.0015 W/m/K
330.31 K, 27940 kPa, Liquid, transient hot wire	0.06422 ± 0.0013 W/m/K
330.31 K, 27943 kPa, Liquid, transient hot wire	0.06422 ± 0.0013 W/m/K
330.33 K, 8610 kPa, Liquid, transient hot wire	0.05657 ± 0.0012 W/m/K
330.33 K, 8620 kPa, Liquid, transient hot wire	0.05647 ± 0.0012 W/m/K
330.35 K, 46566 kPa, Liquid, transient hot wire	0.07011 ± 0.0014 W/m/K
330.35 K, 46569 kPa, Liquid, transient hot wire	0.07013 ± 0.0014 W/m/K
330.38 K, 4468 kPa, Liquid, transient hot wire	0.05439 ± 0.0011 W/m/K
330.39 K, 4469 kPa, Liquid, transient hot wire	0.0544 ± 0.0011 W/m/K
330.39 K, 20517 kPa, Liquid, transient hot wire	0.06147 ± 0.0013 W/m/K
330.4 K, 20518 kPa, Liquid, transient hot wire	0.06147 ± 0.0013 W/m/K
330.45 K, 36702 kPa, Liquid, transient hot wire	0.06713 ± 0.0014 W/m/K
330.45 K, 36716 kPa, Liquid, transient hot wire	0.06714 ± 0.0014 W/m/K
330.46 K, 179 kPa, Liquid, transient hot wire	0.052 ± 0.0011 W/m/K
330.47 K, 179 kPa, Liquid, transient hot wire	0.05202 ± 0.0011 W/m/K
330.48 K, 180 kPa, Liquid, transient hot wire	0.05201 ± 0.0011 W/m/K
330.48 K, 181 kPa, Liquid, transient hot wire	0.052 ± 0.0011 W/m/K
330.48 K, 14128 kPa, Liquid, transient hot wire	0.05889 ± 0.0012 W/m/K
330.48 K, 14134 kPa, Liquid, transient hot wire	0.05891 ± 0.0012 W/m/K
330.53 K, 27942 kPa, Liquid, transient hot wire	0.0642 ± 0.0013 W/m/K
330.54 K, 27944 kPa, Liquid, transient hot wire	0.06418 ± 0.0013 W/m/K
330.58 K, 8615 kPa, Liquid, transient hot wire	0.0564 ± 0.0012 W/m/K
330.58 K, 8617 kPa, Liquid, transient hot wire	0.05641 ± 0.0012 W/m/K
330.63 K, 4467 kPa, Liquid, transient hot wire	0.05435 ± 0.0011 W/m/K
330.63 K, 20513 kPa, Liquid, transient hot wire	0.06146 ± 0.0013 W/m/K
330.64 K, 4463 kPa, Liquid, transient hot wire	0.05433 ± 0.0011 W/m/K
330.64 K, 20514 kPa, Liquid, transient hot wire	0.06146 ± 0.0013 W/m/K
330.73 K, 179 kPa, Liquid, transient hot wire	0.05196 ± 0.0011 W/m/K and 0.05197 ± 0.0011 W/m/K
330.73 K, 181 kPa, Liquid, transient hot wire	0.05196 ± 0.0011 W/m/K and 0.05215 ± 0.0011 W/m/K
330.73 K, 14130 kPa, Liquid, transient hot wire	0.05885 ± 0.0012 W/m/K
330.74 K, 14134 kPa, Liquid, transient hot wire	0.0589 ± 0.0012 W/m/K
330.84 K, 8608 kPa, Liquid, transient hot wire	0.05637 ± 0.0012 W/m/K
330.84 K, 8609 kPa, Liquid, transient hot wire	0.05639 ± 0.0012 W/m/K
330.91 K, 4465 kPa, Liquid, transient hot wire	0.05432 ± 0.0011 W/m/K and 0.0543 ± 0.0011 W/m/K
331.01 K, 179 kPa, Liquid, transient hot wire	0.05176 ± 0.0011 W/m/K and 0.05194 ± 0.0011 W/m/K
331.01 K, 180 kPa, Liquid, transient hot wire	0.05194 ± 0.0011 W/m/K
331.01 K, 181 kPa, Liquid, transient hot wire	0.05193 ± 0.0011 W/m/K
331.09 K, 3942 kPa, Liquid, transient hot wire	0.05385 ± 0.0011 W/m/K
331.1 K, 3945 kPa, Liquid, transient hot wire	0.05411 ± 0.0011 W/m/K
331.21 K, 28078 kPa, Liquid, transient hot wire	0.06464 ± 0.0013 W/m/K
331.22 K, 20447 kPa, Liquid, transient hot wire	0.06133 ± 0.0013 W/m/K
331.22 K, 28080 kPa, Liquid, transient hot wire	0.06416 ± 0.0013 W/m/K
331.23 K, 20449 kPa, Liquid, transient hot wire	0.06095 ± 0.0013 W/m/K
331.24 K, 14112 kPa, Liquid, transient hot wire	0.05849 ± 0.0012 W/m/K
331.25 K, 14113 kPa, Liquid, transient hot wire	0.05865 ± 0.0012 W/m/K
331.28 K, 8580 kPa, Liquid, transient hot wire	0.05626 ± 0.0012 W/m/K
331.28 K, 8582 kPa, Liquid, transient hot wire	0.05648 ± 0.0012 W/m/K
331.31 K, 242 kPa, Liquid, transient hot wire	0.05138 ± 0.0011 W/m/K and 0.05151 ± 0.0011 W/m/K
331.36 K, 73 kPa, Liquid, transient hot wire	0.05184 ± 0.0011 W/m/K
331.36 K, 69235 kPa, Liquid, transient hot wire	0.07553 ± 0.0015 W/m/K
331.36 K, 69237 kPa, Liquid, transient hot wire	0.07531 ± 0.0015 W/m/K
331.37 K, 107 kPa, Liquid, transient hot wire	0.05182 ± 0.0011 W/m/K
331.37 K, 57734 kPa, Liquid, transient hot wire	0.07228 ± 0.0015 W/m/K
331.37 K, 57739 kPa, Liquid, transient hot wire	0.07238 ± 0.0015 W/m/K
